For one data set, the system named is KK male mice. Kind of data set: Hypoglycemic effect during glucose load in mice. Type of data set: in vivo, mouse. The conditions noted are these: 1 mg/kg oral, 4 mice; for inhibition in vivo at 1 mg/kg: Mus musculus, po. As to the method:
Hypoglycemic effect during glucose load
The hypoglycemic effect of the compounds of the present invention during glucose load in mice was measured as follows.
Three month old KK male mice, each weighing 28 to 30 g, were fasted overnight, and then 1 mg/kg of the compound to be tested or carboxymethylcellulose (CMC) as a control was administered orally. After 60 minutes, 1.2 g/kg of D-glucose was administered subcutaneously. Then, at 60 and 120 minutes after the subcutaneous glucose injection, blood samples were taken, and the glucose levels were determined by means of a glucose analyzer (GL-101, a product of Mitsubishi Kasei, Co.). The hypoglycemic rates (R) of the test compound during the glucose load were calculated according to the following equation: […]
A: Blood glucose level in the group administered CMC
B: Blood glucose level in the group administered a test sample.

Data set [1] has as its system male mice of the ddY strain. Kind of data set: Toxicity, oral administration to mice, one week observation. The class given is in vivo, mouse. The conditions noted are these: 300 mg/kg oral; for survival at the end of the period of observation: groups of 3, one week; for abnormalities which could be attributed to the test compounds: groups of 3, one week observation. Here is the method:
The test animals employed were male mice of the ddY strain. The animals were employed in groups of 3. The test compound was administered orally to each animal group at a dose of 300 mg/kg body weight. The compounds employed were those prepared as described in Examples 1, 3, 8, 24, 47 and 48.

In data set [2] the target is T1, Bovine lens aldose reductase (Bos taurus, UniProt P16116).
T1 construct: Bovine lens aldose reductase was separated and partially purified; from tissue; host or cells: bovine lens
In words: Inhibition of Aldose reductase. Type of data set: biochemical. The conditions noted are these: for inhibition at 5 µg/mL: 5 μg/ml. Here is the method: Inhibition of Aldose reductase
Bovine lens aldose reductase was separated and partially purified by the method of S. Hyman and J. H. Kinoshita [J. Biol. Chem., 240, 877 (1965)] and K. Inagaki, I. Miwa and J. Okuda [Arch. Biochem. Biophys., 316, 337 (1982)], and its activity was determined photometrically by the method of Varma et al. [Biochem. Pharmac., 25, 2505 (1976)]. Inhibition of enzyme activity was measured for the compounds of the present invention at a concentration of 5 μg/ml, and the results are shown in the following Table 10.

[3] abbreviates: 1 h, 60 min after subcutaneous glucose 1.2 g/kg, read-out: Hypoglycemic rate during glucose load, 60 min.
The mark [4] stands for this setting: 2 h, 120 min after subcutaneous glucose 1.2 g/kg, read-out: Hypoglycemic rate during glucose load, 120 min.

Counter-ions that a name gives are not always drawn. Like-named read-outs stand apart in the source and are kept apart here.

One may read the IC50 as the concentration that inhibits the measured activity by half. A lower IC50 goes with greater potency. The term inhibition denotes the change of the read-out against control, counted positive when it falls.

For the molecule `COC(=O)Cc1ccc(OCC(C)NCC(O)c2cccc(OC)c2)cc1` (stereo not shown) [Example 44, 2-[2-(4-Methoxycarbonylmethylphenoxy)-1-methylethyl]amino-1-(3-methoxyphenyl)ethanol], the inhibition in vivo at 1 mg/kg in the data set on KK male mice (setting [3]) amounted to 38.1%; in the data set on KK male mice (setting [4]), 24.8%.

Turning to `CC(COc1ccc(CO)cc1)NCC(O)c1cccc(Cl)c1` (stereo not shown) [Example 1, 2-[2-(4-Hydroxymethylphenoxy)-1-methylethyl]-amino-1-(3-chlorophenyl)ethanol], in data set [1], the “survival at the end of the period of observation” value is on record as “All animals were alive” and the “abnormalities which could be attributed to the test compounds” value was “no abnormalities”.

For `COC(=O)Cc1ccc(OCC(C)NCC(O)c2cccc(Cl)c2)cc1` (stereo not shown) [Example 24, 2-[2-(4-Methoxycarbonylmethylphenoxy)-1-methylethyl]amino-1-(3-chloropbenyl)ethanol fumarate], the “Hypoglycemic rate during glucose load, 60 min.” value in the data set with KK male mice (60 min after subcutaneous glucose 1.2 g/kg) is 61.4%. Further, the “Hypoglycemic rate during glucose load, 120 min.” value in the data set on KK male mice (120 min after subcutaneous glucose 1.2 g/kg) turned out to be 56.9%.

In data set [2], `CC(COc1ccc(CC(=O)O)cc1Cl)NCC(O)c1cccc(Cl)c1` (stereo not shown) [Example 36, 2-[2-(4-Carboxymethyl-2-chlorophenoxy)-1-methylethyl]amino-1-(3-chlorophenyl)ethanol] showed an IC50 of 7.28 µM and an inhibition at 5 µg/mL of 60.4%.

As for `COC(=O)Cc1ccc(OCC(C)NCC(O)c2cc(Cl)cc(Cl)c2)cc1` (stereo not shown) [Example 40, 2-[2-(4-Methoxycarbonylmethylphenoxy)-1-methylethyl]amino-1-(3,5-dichlorophenyl)ethanol], the inhibition in vivo at 1 mg/kg stood at 37.9% in the data set with KK male mice (setting [3]) and 24.5% with KK male mice (setting [4]).

Turning to `COC(=O)C(O)Cc1ccc(OCC(C)NCC(O)c2cccc(Cl)c2)cc1` (stereo not shown) [Example 6, 2-{2-[4-(2-Methoxycarbonyl-2-hydroxyethyl)phenoxy]-1-methylethyl}amino-1-(3-chlorophenyl)ethanol], the figures for the inhibition in vivo at 1 mg/kg in the data set on KK male mice (setting [3]) and in the data set on KK male mice (setting [4]) were 43.4% and 40.5%, respectively.

`COC(=O)Cc1ccc(OCC(C)NCC(O)c2cccc(Br)c2)cc1` (stereo not shown) [Example 42, 2-[2-(4-Methoxycarbonylmethylphenoxy)-1-methylethyl]amino-1-(3-bromophenyl)ethanol]: the inhibition in vivo at 1 mg/kg in the data set on KK male mice (setting [3]) is 60.9%; in the data set with KK male mice (setting [4]), 57.6%.

Turning to `COC(=O)Cc1ccc(OC[C@@H](C)NC[C@H](O)c2cccc(Cl)c2)cc1.O=C(O)/C=C/C(=O)O` [Example 47, 2-[2-(4-Methoxycarbonylmethylphenoxy)-1(R)-methylethyl]amino-1(R)-(3-chlorophenyl)ethanol fumarate], in the data set on KK male mice (setting [3]), the inhibition in vivo at 1 mg/kg was 60.9%. The inhibition in vivo at 1 mg/kg in the data set on KK male mice (setting [4]) was 51.5%. Moreover, in data set [1], the “survival at the end of the period of observation” value is given as “All animals were alive” and the “abnormalities which could be attributed to the test compounds” value is given as “no abnormalities”.

On to `COC(=O)Cc1ccc(OC[C@@H](C)NC[C@H](O)c2ccccc2)cc1` [Example 27, 2-[2-(4-Methoxycarbonylmethylphenoxy)-1(R)-methylethyl]amino-1(R)-phenylethanol], for which the inhibition in vivo at 1 mg/kg was 68.4% in the data set on KK male mice (setting [3]) and 52.1% with KK male mice (setting [4]).

Turning to `CC(COc1ccc(CCO)cc1)NCC(O)c1cccc(Cl)c1` (stereo not shown) [Example 8, 2-{2-[4-(2-Hydroxyethyl)phenoxy]-1-methylethyl}amino-1-(3-chlorophenyl)ethanol], the inhibition in vivo at 1 mg/kg in the data set on KK male mice (setting [3]) turned out to be 56.8%; in the data set on KK male mice (setting [4]), 45.1%.

`COC(=O)Cc1ccc(OCC(C)NCC(O)c2cccc(C(F)(F)F)c2)cc1` (stereo not shown) [Example 43, 2-[2-(4-Methoxycarbonylmethylphenoxy)-1-methylethyl]amino-1-(3-trifluoromethylphenyl)ethanol]: the inhibition in vivo at 1 mg/kg in the data set with KK male mice (setting [3]) came out at 66.5%; in the data set with KK male mice (setting [4]) it was 58.6%.

In data set [2], `C[C@H](COc1ccc(CC2SC(=O)NC2=O)cc1)NC[C@H](O)c1cccc(Cl)c1` (stereo partly drawn) [Example 48, 5-[4-{2(R)-[2(R)-(3-Chlorophenyl)-2-hydroxyethylamino]propoxy}benzyl]thiazolidine-2,4-dione] registered an inhibition at 5 µg/mL of 47.5%.

As to `COC(=O)Cc1ccc(OCC(C)NCC(O)c2cccc(Cl)c2)cc1` (stereo not shown) [Example 3, 2-[2-(4-Methoxycarbonylmethylphenoxy)-1-methylethyl]-amino-1-(3-chlorophenyl)ethanol], the figures for the inhibition in vivo at 1 mg/kg in the data set with KK male mice (setting [3]) and in the data set with KK male mice (setting [4]) were 67.3% and 56.5%, respectively.

`COC(=O)Cc1ccc(OCC(C)NCC(O)c2ccc(F)c(Cl)c2)cc1` (stereo not shown) [Example 41, 2-[2-(4-Methoxycarbonylmethylphenoxy)-1-methylethyl]amino-1-(3-chloro-4-fluorophenyl)ethanol]: the inhibition in vivo at 1 mg/kg was 50.1% with KK male mice (setting [3]) and 43% in the data set with KK male mice (setting [4]).

Regarding `CC(COc1ccc(CC(=O)NO)cc1Cl)NCC(O)c1cccc(Cl)c1` (stereo not shown) [Example 34, 2-{2-[2-Chloro-4-(N-hydroxycarbamoylmethyl)phenoxy]-1-methylethyl}amino-1-(3-chlorophenyl)ethanol], in data set [2], the concentration for half-maximal inhibition (IC50) is 6.05 µM and the inhibition at 5 µg/mL was 63.3%.

The record behind these values is patent US5635534A, “Aromatic amino-alcohol derivatives having anti-diabetic and anti-obesity properties, their preparation and their therapeutic uses” (Sankyo Company, Limited, priority 1991, dated 1997).
